Key:
Pseudomonas aeruginosa = experiment: Antibacterial activity against Pseudomonas aeruginosa 260-97103 infected in Galleria mellonella larvae assessed as survival of larvae up to 50 mg/kg measured after 24 hrs relative to control; type: functional, organism-based; conditions: dose mg/kg <=50, time 24.0 hrs
[1] = Cytotoxicity against human HEK293 cells assessed as cell viability at 12 uM incubated for 48 hrs by prestoblue assay; type: cell-based; conditions: read-out: Activity
[2] = Cytotoxicity against human HepG2 cells assessed as cell viability at 12 uM incubated for 48 hrs by prestoblue assay; type: cell-based; conditions: read-out: Activity
[3] = Toxicity in Galleria mellonella larvae assessed as larval […] at 100 mg/kg measured after 24 hrs; type: organism-based; conditions: in vivo

With COLISTIN the Survival (Pseudomonas aeruginosa) was greater than 50%.
In the case of `COc1cccc2c1C(=O)c1c(O)c3c(c(O)c1C2=O)C[C@@](O)(C(=O)CO)C[C@@H]3O[C@H]1C[C@H](N)[C@H](O)[C@H](C)O1` [DOXORUBICIN], the viability at 48 h, 12 µM [1] is reported as less than 10% and the viability at 48 h, 12 µM [2] is reported as less than 10%.
Molecule `C[C@@H](O)[C@H]1C(=O)N2C(C(=O)O)=C(S[C@@H]3CN[C@H](C(=O)N(C)C)C3)[C@H](C)[C@H]12` [MEROPENEM] has a mortality at 24 h [3] of 100%.

— ChEMBL document CHEMBL4715829, “Heterodimeric Rifampicin-Tobramycin conjugates break intrinsic resistance of Pseudomonas aeruginosa to doxycycline and chloramphenicol in vitro and in a Galleria mellonella in vivo model” (Eur J Med Chem, 2019)
